Values after ≈ are worked out from the molar mass of the structure shown.
What was measured:
[1] = system: Mycolicibacterium smegmatis; test: Antimycobacterial activity against Mycobacterium smegmatis MC2 155 assessed as ATP leakage by measuring extracellular ATP at 4 times MIC measured immediatey after addition of compounds by luciferase reporter gene assay; type: functional, str. MC2 155
[2] = system: Mycolicibacterium smegmatis; test: Antimycobacterial activity against Mycobacterium smegmatis MC2 155 assessed as ATP leakage by measuring intracellular ATP at MIC measured immediatey after addition of compounds by luciferase reporter gene assay; type: functional, str. MC2 155
[3] = system: Mycolicibacterium smegmatis; test: Antimycobacterial activity against Mycobacterium smegmatis MC2 155 assessed as ATP leakage by measuring extracellular ATP at 0.5 times MIC measured at 1 hr of post dose by luciferase reporter gene assay; type: functional, str. MC2 155
[4] = system: Mycolicibacterium smegmatis; test: Antimycobacterial activity against Mycobacterium smegmatis MC2 155 after 24 hrs by broth dilution assay; type: functional; conditions: str. MC2 155, 24 h
[5] = system: Mycolicibacterium smegmatis; test: Antimycobacterial activity against Mycobacterium smegmatis MC2 155 assessed as ATP leakage by measuring extracellular ATP at MIC measured at 24 hrs post dose by luciferase reporter gene assay; type: functional, str. MC2 155
[6] = system: Mycolicibacterium smegmatis; test: Antimycobacterial activity against Mycobacterium smegmatis MC2 155 assessed as inhibition of respiratory ATP synthesis by measuring ATP level at 2 times MIC measured after 6 hrs by luciferase reporter gene assay (reference value: 152%); type: functional, str. MC2 155; design: scale not given: the % may be the effect or the level left
[7] = system: Mycolicibacterium smegmatis; test: Antimycobacterial activity against Mycobacterium smegmatis MC2 155 assessed as ATP leakage by measuring intracellular ATP at 4 times MIC measured at 1 hr of post dose by luciferase reporter gene assay; type: functional, str. MC2 155
[8] = system: Mycolicibacterium smegmatis; test: Antimycobacterial activity against Mycobacterium smegmatis MC2 155 assessed as ATP leakage by measuring intracellular ATP at MIC measured at 9 hrs post dose by luciferase reporter gene assay; type: functional, str. MC2 155
[9] = system: Mycolicibacterium smegmatis; test: Antimycobacterial activity against Mycobacterium smegmatis MC2 155 assessed as ATP leakage by measuring intracellular ATP at 4 times MIC measured at 6 hrs post dose by luciferase reporter gene assay; type: functional, str. MC2 155
[10] = system: Mycolicibacterium smegmatis; test: Antimycobacterial activity against Mycobacterium smegmatis MC2 155 assessed as ATP leakage by measuring extracellular ATP at 2 times MIC measured at 6 hrs post dose by luciferase reporter gene assay; type: functional, str. MC2 155
CYP2D6 = CYP2D6 (Homo sapiens, UniProt P10635); test: Inhibition of CYP2D6 in human liver microsomes at 10 uM using bufuralol as substrate preincubated for 5 min followed by NADPH addition measured after 10 mins by LC-MS/MS method relative to control; type: ADME; conditions: probe bufuralol
[11] = system: Mycolicibacterium smegmatis; test: Antimycobacterial activity against Mycobacterium smegmatis MC2 155 assessed as ATP leakage by measuring extracellular ATP at 0.5 times MIC measured at 24 hrs post dose by luciferase reporter gene assay; type: functional, str. MC2 155
[12] = system: Mycolicibacterium smegmatis; test: Antimycobacterial activity against Mycobacterium smegmatis MC2 155 assessed as ATP leakage by measuring extracellular ATP at 0.5 times MIC measured immediatey after addition of compounds by luciferase reporter gene assay by luciferase reporter gene assay by luciferase reporter gene assay; type: functional, str. MC2 155
[13] = system: Mycolicibacterium smegmatis; test: Antimycobacterial activity against Mycobacterium smegmatis MC2 155 assessed as inhibition of respiratory ATP synthesis by measuring ATP level at 2 times MIC measured after 6 hrs by luciferase reporter gene assay (reference value: 212.7%); type: functional, str. MC2 155; design: scale not given: the % may be the effect or the level left
[14] = system: Mycolicibacterium smegmatis; test: Antimycobacterial activity against Mycobacterium smegmatis MC2 155 assessed as ATP leakage by measuring intracellular ATP at 0.5 times MIC measured at 3 hrs post dose by luciferase reporter gene assay; type: functional, str. MC2 155
[15] = system: Mycolicibacterium smegmatis; test: Antimycobacterial activity against Mycobacterium smegmatis MC2 155 assessed as ATP leakage by measuring extracellular ATP at 4 times MIC measured at 6 hrs post dose by luciferase reporter gene assay; type: functional, str. MC2 155
[16] = system: Mycolicibacterium smegmatis; test: Antimycobacterial activity against Mycobacterium smegmatis MC2 155 assessed as ATP leakage by measuring intracellular ATP at 2 times MIC measured at 6 hrs post dose by luciferase reporter gene assay; type: functional, str. MC2 155
[17] = system: Mycolicibacterium smegmatis; test: Antimycobacterial activity against Mycobacterium smegmatis MC2 155 assessed as ATP leakage by measuring intracellular ATP at 4 times MIC measured at 3 hrs post dose by luciferase reporter gene assay; type: functional, str. MC2 155
[18] = system: Mycolicibacterium smegmatis; test: Antimycobacterial activity against Mycobacterium smegmatis MC2 155 assessed as ATP leakage by measuring intracellular ATP at 0.5 times MIC measured at 24 hrs post dose by luciferase reporter gene assay; type: functional, str. MC2 155
[19] = system: Mycolicibacterium smegmatis; test: Antimycobacterial activity against Mycobacterium smegmatis MC2 155 assessed as ATP leakage by measuring intracellular ATP at 2 times MIC measured at 1 hr of post dose by luciferase reporter gene assay; type: functional, str. MC2 155
[20] = system: Mycolicibacterium smegmatis; test: Antimycobacterial activity against Mycobacterium smegmatis MC2 155 assessed as ATP leakage by measuring extracellular ATP at 2 times MIC measured at 3 hrs post dose by luciferase reporter gene assay; type: functional, str. MC2 155
[21] = system: Mycolicibacterium smegmatis; test: Antimycobacterial activity against Mycobacterium smegmatis MC2 155 assessed as ATP leakage by measuring extracellular ATP at 4 times MIC measured at 3 hrs post dose by luciferase reporter gene assay; type: functional, str. MC2 155
[22] = system: Mycolicibacterium smegmatis; test: Antimycobacterial activity against Mycobacterium smegmatis MC2 155 assessed as ATP leakage by measuring extracellular ATP at 4 times MIC measured at 1 hr of post dose by luciferase reporter gene assay; type: functional, str. MC2 155
[23] = system: Mycolicibacterium smegmatis; test: Antimycobacterial activity against Mycobacterium smegmatis MC2 155 assessed as ATP leakage by measuring intracellular ATP at 0.5 times MIC measured at 1 hr of post dose by luciferase reporter gene assay; type: functional, str. MC2 155
[24] = Half life in rat liver microsomes at 1 uM preincubated for 5 mins followed by NADPH addition measured by LC-MS/MS method; type: ADME
[25] = system: Mycolicibacterium smegmatis; test: Antimycobacterial activity against Mycobacterium smegmatis MC2 155 assessed as ATP leakage by measuring intracellular ATP at 2 times MIC measured immediatey after addition of compounds by luciferase reporter gene assay; type: functional, str. MC2 155
[26] = system: Mycolicibacterium smegmatis; test: Antimycobacterial activity against Mycobacterium smegmatis MC2 155 assessed as ATP leakage by measuring extracellular ATP at 4 times MIC measured at 24 hrs post dose by luciferase reporter gene assay; type: functional, str. MC2 155
[27] = system: Mycolicibacterium smegmatis; test: Antimycobacterial activity against Mycobacterium smegmatis MC2 155 assessed as ATP leakage by measuring extracellular ATP at 0.5 times MIC measured at 6 hrs post dose by luciferase reporter gene assay; type: functional, str. MC2 155
CYP3A4 = CYP3A4 (Homo sapiens, UniProt P08684); test: Inhibition of CYP3A4 in human liver microsomes at 10 uM using midazolam as substrate preincubated for 5 min followed by NADPH addition measured after 10 mins by LC-MS/MS method relative to control; type: ADME; conditions: probe midazolam
[28] = system: Mycolicibacterium smegmatis; test: Antimycobacterial activity against Mycobacterium smegmatis MC2 155 assessed as ATP leakage by measuring intracellular ATP at 4 times MIC measured at 9 hrs post dose by luciferase reporter gene assay; type: functional, str. MC2 155
[29] = system: Mycolicibacterium smegmatis; test: Antimycobacterial activity against Mycobacterium smegmatis MC2 155 assessed as ATP leakage by measuring intracellular ATP at MIC measured at 1 hr of post dose by luciferase reporter gene assay; type: functional, str. MC2 155
[30] = system: Mycolicibacterium smegmatis; test: Antimycobacterial activity against Mycobacterium smegmatis MC2 155 assessed as ATP leakage by measuring intracellular ATP at 4 times MIC measured immediatey after addition of compounds by luciferase reporter gene assay; type: functional, str. MC2 155
[31] = system: Mycolicibacterium smegmatis; test: Antimycobacterial activity against Mycobacterium smegmatis MC2 155 assessed as ATP leakage by measuring extracellular ATP at MIC measured at 3 hrs post dose by luciferase reporter gene assay; type: functional, str. MC2 155

CYP2D6, sequence (P10635 whole entry): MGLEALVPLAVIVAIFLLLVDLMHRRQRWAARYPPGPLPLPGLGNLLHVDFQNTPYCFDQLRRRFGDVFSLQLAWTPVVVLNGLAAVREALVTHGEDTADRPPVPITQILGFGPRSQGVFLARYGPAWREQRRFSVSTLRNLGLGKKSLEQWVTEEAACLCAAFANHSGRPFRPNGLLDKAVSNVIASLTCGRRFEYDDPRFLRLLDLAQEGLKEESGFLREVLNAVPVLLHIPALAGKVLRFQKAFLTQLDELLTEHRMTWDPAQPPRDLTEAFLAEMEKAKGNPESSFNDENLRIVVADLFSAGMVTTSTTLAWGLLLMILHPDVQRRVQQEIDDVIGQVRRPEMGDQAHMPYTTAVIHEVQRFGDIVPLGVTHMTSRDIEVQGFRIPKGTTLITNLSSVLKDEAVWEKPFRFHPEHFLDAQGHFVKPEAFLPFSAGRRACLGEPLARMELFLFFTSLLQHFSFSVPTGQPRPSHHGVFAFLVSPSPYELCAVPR
CYP3A4, sequence (P08684 whole entry): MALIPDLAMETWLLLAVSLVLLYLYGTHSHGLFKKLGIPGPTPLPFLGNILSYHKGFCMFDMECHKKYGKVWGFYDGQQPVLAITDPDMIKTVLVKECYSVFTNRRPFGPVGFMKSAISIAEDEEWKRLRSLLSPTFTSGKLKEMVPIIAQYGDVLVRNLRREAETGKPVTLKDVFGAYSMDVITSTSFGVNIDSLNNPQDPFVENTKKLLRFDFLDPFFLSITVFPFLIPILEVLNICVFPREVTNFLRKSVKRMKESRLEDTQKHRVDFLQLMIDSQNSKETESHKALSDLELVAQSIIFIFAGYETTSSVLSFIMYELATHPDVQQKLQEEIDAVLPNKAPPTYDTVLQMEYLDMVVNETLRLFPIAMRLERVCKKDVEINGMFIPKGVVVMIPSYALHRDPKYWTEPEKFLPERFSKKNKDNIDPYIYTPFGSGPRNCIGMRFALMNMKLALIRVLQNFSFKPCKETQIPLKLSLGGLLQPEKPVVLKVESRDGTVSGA

| Structure (SMILES) | Activity [1] [%] | Activity [2] [%] | Activity [3] [%] | MIC90 [4] [µM] | Activity [5] [%] | Activity [6] [%] | Activity [7] [%] | Activity [8] [%] | Activity [9] [%] | Activity [10] [%] | inhibition at 10 min, 10 µM (CYP2D6) [%] | Activity [11] [%] | Activity [12] [%] | Activity [13] [%] | Activity [14] [%] | Activity [15] [%] | Activity [16] [%] | Activity [17] [%] | Activity [18] [%] | Activity [19] [%] | also measured |
| --- | --- | --- | --- | --- | --- | --- | --- | --- | --- | --- | --- | --- | --- | --- | --- | --- | --- | --- | --- | --- | --- |
| COc1c(OCCCCN2CCOCC2)cc2oc3cc(OCCCCN4CCOCC4)c(CC=C(C)C)c(O)c3c(=O)c2c1CC=C(C)C | 3.8 | 97.7 | 2.2 | 35 (≈ 24.3 µg/mL) | 88.7 | 18.9 | 57.3 | 41.4 | 6.7 | 76.7 | 0 | 47.5 | 0 | 11 | 94.1 | 91.3 | 23.3 | 44.7 | 52.5 | 69.6 | Activity [20]: 63.4%; Activity [21]: 55.3%; Activity [22]: 42.7%; Activity [23]: 97.8%; half-life at 1 µM [24]: > 30 min; Activity [25]: 97%; Activity [26]: 95.5%; Activity [27]: 13.2%; inhibition at 10 min, 10 µM (CYP3A4): 32%; Activity [28]: 7.9%; Activity [29]: 93.5%; Activity [30]: 96.2%; Activity [31]: 44.7% |
| CCN(CC)CCCCOc1cc2oc3cc(OCCCCN(CC)CC)c(OC)c(CC=C(C)C)c3c(=O)c2c(O)c1CC=C(C)C | 1.3 | 99.2 | 6.8 | 3.2 (≈ 2.13 µg/mL) | 44.4 | 26.8 | 2.6 | 17.6 | 3.3 | 96.8 | 6 | 66.7 | 0 | 2.3 | 83.6 | 96.7 | 3.2 | 2.5 | 33.3 | 4.4 | Activity [20]: 97.3%; Activity [21]: 97.5%; Activity [22]: 97.4%; Activity [23]: 93.2%; half-life at 1 µM [24]: > 30 min; Activity [25]: 98.7%; Activity [26]: 97.3%; Activity [27]: 12.2%; inhibition at 10 min, 10 µM (CYP3A4): 12%; Activity [28]: 2.7%; Activity [29]: 57.9%; Activity [30]: 98.7%; Activity [31]: 88% |
| CCCN(CCC)CCCCOc1cc2oc3cc(OCCCCN(CCC)CCC)c(OC)c(CC=C(C)C)c3c(=O)c2c(O)c1CC=C(C)C | 4.3 | 97.7 | 24.7 | 3.2 (≈ 2.31 µg/mL) | 88.1 | 3.9 | 5.7 | 10.6 | 16.5 | 96.1 | 0 | 53.6 | 0 | 3.9 | 61 | 83.5 | 3.9 | 8.9 | 46.4 | 2.8 | Activity [20]: 97.4%; Activity [21]: 91.1%; Activity [22]: 94.3%; Activity [23]: 75.3%; half-life at 1 µM [24]: > 30 min; Activity [25]: 96%; Activity [26]: 88%; Activity [27]: 30.6%; inhibition at 10 min, 10 µM (CYP3A4): 0%; Activity [28]: 15.7%; Activity [29]: 11.5%; Activity [30]: 95.7%; Activity [31]: 91.8% |

From ChEMBL document CHEMBL3872220, “Amphiphilic xanthones as a potent chemical entity of anti-mycobacterial agents with membrane-targeting properties” (Eur J Med Chem, 2016)
